Data as given in ChEMBL document CHEMBL1149262, “Monoamine transporter binding, locomotor activity, and drug discrimination properties of 3-(4-substituted-phenyl)tropane-2-carboxylic acid methyl ester isomers” (J Med Chem, 2004).
The source made the active and inactive calls. No cut-off for these calls is given here.

How the values were obtained:
[1] = system: Mus musculus; test: Locomotor activity in CD1 mouse assessed as stimulation at 10 mg/kg, ip after 1 hr relative to control; type: functional; conditions: route intraperitoneal
[2] = system: Rattus norvegicus; test: Drug discrimination effect in CD Albino rat assessed as percent of rat choosing cocaine lever at 10 mg/kg, ip; type: functional; conditions: route intraperitoneal
[3] = biological target: Sodium-dependent dopamine transporter (Homo sapiens, UniProt Q01959); test: Displacement of [3H]WIN-35428 from DAT
Sequence of Sodium-dependent dopamine transporter (Q01959 whole entry): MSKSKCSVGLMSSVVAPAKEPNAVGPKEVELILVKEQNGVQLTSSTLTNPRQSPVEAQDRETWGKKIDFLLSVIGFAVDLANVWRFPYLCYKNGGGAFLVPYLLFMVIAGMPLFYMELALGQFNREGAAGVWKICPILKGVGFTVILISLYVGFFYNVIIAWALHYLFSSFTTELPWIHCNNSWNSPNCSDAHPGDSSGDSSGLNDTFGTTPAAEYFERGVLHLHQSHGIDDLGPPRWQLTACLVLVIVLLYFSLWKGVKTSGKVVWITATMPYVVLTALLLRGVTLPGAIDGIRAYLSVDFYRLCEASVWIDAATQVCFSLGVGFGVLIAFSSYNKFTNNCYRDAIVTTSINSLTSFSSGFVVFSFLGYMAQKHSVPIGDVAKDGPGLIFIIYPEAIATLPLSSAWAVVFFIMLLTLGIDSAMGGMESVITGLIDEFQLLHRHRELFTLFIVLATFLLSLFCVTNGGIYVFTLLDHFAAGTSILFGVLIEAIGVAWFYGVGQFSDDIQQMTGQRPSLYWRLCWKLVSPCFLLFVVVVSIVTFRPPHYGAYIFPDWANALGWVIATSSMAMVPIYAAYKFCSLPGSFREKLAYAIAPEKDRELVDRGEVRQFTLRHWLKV

[4] = system: Rattus norvegicus; test: Cocaine discrimination in ip dosed CD Albino rat; type: functional
[5] = system: Mus musculus; test: Locomotor activity in CD1 mouse assessed as stimulation at 1 mg/kg, ip after 3 hrs relative to control; type: functional; conditions: route intraperitoneal
[6] = system: Mus musculus; test: Locomotor activity in CD1 mouse assessed as stimulation at 3 mg/kg, ip after 1 hr relative to control; type: functional; conditions: route intraperitoneal
[7] = system: Rattus norvegicus; test: Drug discrimination effect in CD Albino rat assessed as percent of rat choosing cocaine lever at 5.6 mg/kg, ip; type: functional; conditions: route intraperitoneal
[8] = system: Mus musculus; test: Locomotor activity in CD1 mouse assessed as stimulation at 30 mg/kg, ip after 1 hr relative to control; type: functional; conditions: route intraperitoneal
[9] = system: Mus musculus; test: Locomotor activity in CD1 mouse assessed as stimulation at 1 mg/kg, ip after 2 hrs relative to control; type: functional; conditions: route intraperitoneal
[10] = system: Mus musculus; test: Activity in CD1 mouse assessed as tremor at 100 mg/kg, ip after 4 hrs; type: functional, organism-based; parameters: dose 100 mg/kg
[11] = system: Mus musculus; test: Activity in CD1 mouse assessed as death at 100 mg/kg, ip after 4 hrs; type: functional, organism-based; parameters: dose 100 mg/kg
[12] = system: Mus musculus; test: Locomotor activity in CD1 mouse assessed as stimulation at 30 mg/kg, ip after 4 hrs relative to control; type: functional; conditions: route intraperitoneal
[13] = system: Mus musculus; test: Activity in CD1 mouse assessed as ataxia at 100 mg/kg, ip after 4 hrs; type: functional, organism-based; parameters: dose 100 mg/kg
[14] = system: Mus musculus; test: Activity in CD1 mouse assessed as straub tail at 100 mg/kg, ip after 4 hrs; type: functional, organism-based; parameters: dose 100 mg/kg
[15] = system: Mus musculus; test: Activity in CD1 mouse assessed as stimulation at 10 mg/kg, ip after 4 hrs; type: functional, organism-based; parameters: dose 10 mg/kg
[16] = system: Mus musculus; test: Locomotor activity in CD1 mouse assessed as stimulation at 3 mg/kg, ip after 2 hrs relative to control; type: functional; conditions: route intraperitoneal
[17] = system: Mus musculus; test: Locomotor activity in CD1 mouse assessed as stimulation at 10 mg/kg, ip after 3 hrs relative to control; type: functional; conditions: route intraperitoneal
[18] = system: Mus musculus; test: Locomotor activity in CD1 mouse assessed as stimulation at 10 mg/kg, ip after 2 hrs relative to control; type: functional; conditions: route intraperitoneal
[19] = system: Mus musculus; test: Locomotor activity in ip dosed CD1 mouse in peak hour; type: functional
[20] = system: Mus musculus; test: Activity in CD1 mouse assessed as convulsions at 100 mg/kg, ip after 4 hrs; type: functional, organism-based; parameters: dose 100 mg/kg
[21] = system: Mus musculus; test: Locomotor activity in CD1 mouse assessed as stimulation at 10 mg/kg, ip after 4 hrs relative to control; type: functional; conditions: route intraperitoneal
[22] = system: Mus musculus; test: Activity in CD1 mouse assessed as stereotypy at 100 mg/kg, ip after 4 hrs; type: functional, organism-based; parameters: dose 100 mg/kg
[23] = system: Mus musculus; test: Locomotor activity in CD1 mouse assessed as stimulation at 3 mg/kg, ip after 3 hrs relative to control; type: functional; conditions: route intraperitoneal
[24] = system: Rattus norvegicus; test: Drug discrimination effect in CD Albino rat assessed as percent of rat choosing cocaine lever at 3 mg/kg, ip; type: functional; conditions: route intraperitoneal
[25] = system: Mus musculus; test: Locomotor activity in CD1 mouse assessed as stimulation at 1 mg/kg, ip after 1 hr relative to control; type: functional; conditions: route intraperitoneal
[26] = system: Mus musculus; test: Locomotor activity in CD1 mouse assessed as stimulation at 1 mg/kg, ip after 4 hrs relative to control; type: functional; conditions: route intraperitoneal
[27] = system: Mus musculus; test: Locomotor activity in CD1 mouse assessed as stimulation at 30 mg/kg, ip after 3 hrs relative to control; type: functional; conditions: route intraperitoneal
[28] = system: Mus musculus; test: Activity in CD1 mouse assessed as circling at 100 mg/kg, ip after 4 hrs; type: functional, organism-based; parameters: dose 100 mg/kg
[29] = system: Mus musculus; test: Locomotor activity in CD1 mouse assessed as stimulation at 3 mg/kg, ip after 4 hrs relative to control; type: functional; conditions: route intraperitoneal
[30] = system: Mus musculus; test: Locomotor activity in CD1 mouse assessed as stimulation at 30 mg/kg, ip after 2 hrs relative to control; type: functional; conditions: route intraperitoneal
[31] = system: Mus musculus; test: Activity in CD1 mouse assessed as hind limb splay at 100 mg/kg, ip after 4 hrs; type: functional, organism-based; parameters: dose 100 mg/kg; conditions: Hindlimb
[32] = system: Rattus norvegicus; test: Drug discrimination effect in CD Albino rat assessed as percent of rat choosing cocaine lever at 30 mg/kg, ip; type: functional; conditions: route intraperitoneal
[33] = biological target: Sodium-dependent noradrenaline transporter (Homo sapiens, UniProt P23975); test: Displacement of [3H]nisoxetine from NET
Sequence of Sodium-dependent noradrenaline transporter (P23975 whole entry): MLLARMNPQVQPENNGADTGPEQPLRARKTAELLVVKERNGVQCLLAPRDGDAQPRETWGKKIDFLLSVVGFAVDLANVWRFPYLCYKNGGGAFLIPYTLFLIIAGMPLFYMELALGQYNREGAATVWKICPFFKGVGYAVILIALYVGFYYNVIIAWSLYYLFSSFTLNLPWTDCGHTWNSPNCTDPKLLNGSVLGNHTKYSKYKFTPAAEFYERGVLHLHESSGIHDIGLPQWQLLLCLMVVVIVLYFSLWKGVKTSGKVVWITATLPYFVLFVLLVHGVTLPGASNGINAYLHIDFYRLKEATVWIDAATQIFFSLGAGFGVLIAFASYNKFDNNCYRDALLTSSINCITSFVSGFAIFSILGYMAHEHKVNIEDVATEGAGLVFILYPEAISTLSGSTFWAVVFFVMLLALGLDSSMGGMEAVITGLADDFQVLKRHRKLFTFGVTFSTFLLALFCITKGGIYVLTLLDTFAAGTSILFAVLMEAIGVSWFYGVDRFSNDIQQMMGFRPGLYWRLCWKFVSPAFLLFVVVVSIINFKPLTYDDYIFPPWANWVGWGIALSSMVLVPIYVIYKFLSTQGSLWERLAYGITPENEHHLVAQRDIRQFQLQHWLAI

[34] = system: Mus musculus; test: Activity in CD1 mouse assessed as hypoactivity at 100 mg/kg, ip after 4 hrs; type: functional, organism-based; parameters: dose 100 mg/kg
[35] = system: Rattus norvegicus; test: Drug discrimination effect in CD Albino rat assessed as percent of rat choosing cocaine lever at 17 mg/kg, ip; type: functional; conditions: route intraperitoneal
[36] = system: Mus musculus; test: Activity in CD1 mouse assessed as slight or intermittent stimulation at 10 mg/kg, ip after 4 hrs; type: functional, organism-based; parameters: dose 10 mg/kg
[37] = system: Mus musculus; test: Activity in CD1 mouse assessed as hypoactivity at 10 mg/kg, ip after 4 hrs; type: functional, organism-based; parameters: dose 10 mg/kg
[38] = biological target: Sodium-dependent serotonin transporter (Homo sapiens, UniProt P31645)
Sequence of Sodium-dependent serotonin transporter (P31645 whole entry): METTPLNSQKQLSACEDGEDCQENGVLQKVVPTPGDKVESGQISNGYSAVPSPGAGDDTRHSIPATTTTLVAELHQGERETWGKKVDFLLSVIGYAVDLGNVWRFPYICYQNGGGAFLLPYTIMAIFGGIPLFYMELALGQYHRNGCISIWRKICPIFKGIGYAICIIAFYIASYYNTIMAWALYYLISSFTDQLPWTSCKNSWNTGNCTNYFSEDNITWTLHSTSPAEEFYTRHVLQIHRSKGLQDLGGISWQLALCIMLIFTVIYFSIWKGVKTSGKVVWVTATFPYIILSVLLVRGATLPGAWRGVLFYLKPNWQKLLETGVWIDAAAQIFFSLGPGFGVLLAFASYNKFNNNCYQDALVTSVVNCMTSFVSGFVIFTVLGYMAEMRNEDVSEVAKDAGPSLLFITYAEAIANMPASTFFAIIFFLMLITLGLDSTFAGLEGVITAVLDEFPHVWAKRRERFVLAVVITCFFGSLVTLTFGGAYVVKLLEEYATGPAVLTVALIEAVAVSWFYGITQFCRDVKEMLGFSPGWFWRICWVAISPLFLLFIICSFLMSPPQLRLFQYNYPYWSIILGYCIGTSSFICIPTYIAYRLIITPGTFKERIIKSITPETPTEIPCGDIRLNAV
Description: Displacement of [3H]paroxetine from 5HTT

[39] = system: Mus musculus; test: Activity in CD1 mouse assessed as stereotypy at 10 mg/kg, ip after 4 hrs; type: functional, organism-based; parameters: dose 10 mg/kg
[40] = system: Mus musculus; test: Activity in CD1 mouse assessed as ptosis at 10 mg/kg, ip after 4 hrs; type: functional, organism-based; parameters: dose 10 mg/kg
[41] = system: Mus musculus; test: Activity in CD1 mouse assessed as ptosis at 100 mg/kg, ip after 4 hrs; type: functional, organism-based; parameters: dose 100 mg/kg
[42] = system: Mus musculus; test: Locomotor activity in CD1 mouse assessed as stimulation at 0.3 mg/kg, ip after 4 hrs relative to control; type: functional; conditions: route intraperitoneal
[43] = system: Mus musculus; test: Locomotor activity in CD1 mouse assessed as stimulation at 0.3 mg/kg, ip after 3 hrs relative to control; type: functional; conditions: route intraperitoneal
[44] = system: Rattus norvegicus; test: Drug discrimination effect in CD Albino rat assessed as percent of rat choosing cocaine lever at 1 mg/kg, ip; type: functional; conditions: route intraperitoneal
[45] = system: Mus musculus; test: Locomotor activity in CD1 mouse assessed as stimulation at 0.3 mg/kg, ip after 2 hrs relative to control; type: functional; conditions: route intraperitoneal
[46] = system: Mus musculus; test: Locomotor activity in CD1 mouse assessed as stimulation at 0.3 mg/kg, ip after 1 hr relative to control; type: functional; conditions: route intraperitoneal
[47] = system: Mus musculus; test: Activity in CD1 mouse assessed as slight or intermittent stereotypy at 1 mg/kg, ip after 4 hrs; type: functional, organism-based; parameters: dose 1 mg/kg
[48] = system: Rattus norvegicus; test: Drug discrimination effect in CD Albino rat assessed as percent of rat choosing cocaine lever at 0.3 mg/kg, ip; type: functional; conditions: route intraperitoneal
[49] = system: Mus musculus; test: Activity in CD1 mouse assessed as hyperactivity at 10 mg/kg, ip after 4 hrs; type: functional, organism-based; parameters: dose 10 mg/kg
[50] = system: Rattus norvegicus; test: Drug discrimination effect in CD Albino rat assessed as percent of rat choosing cocaine lever at 0.17 mg/kg, ip; type: functional; conditions: route intraperitoneal
[51] = system: Rattus norvegicus; test: Drug discrimination effect in CD Albino rat assessed as percent of rat choosing cocaine lever at 0.56 mg/kg, ip; type: functional; conditions: route intraperitoneal
[52] = system: Mus musculus; test: Activity in CD1 mouse assessed as slight or intermittent hyperactivity at 1 mg/kg, ip after 4 hrs; type: functional, organism-based; parameters: dose 1 mg/kg

Structure (SMILES)	Activity [1]	Activity [2]	IC50 [3]	ED50 [4]	Activity [5]	Activity [6]	Activity [7]	Activity [8]	Activity [9]	Activity [12]	Activity [14]	Activity [16]	Activity [17]	Activity [18]	Activity [20]	Activity [21]	Activity [23]	Activity [25]	Activity [26]	Activity [29]	further results
COC(=O)[C@H]1C2CCC(C[C@@H]1c1ccc(Cl)cc1)N2C (some centres not stated)	248%	67%	0.025 µM	4.07 mg/kg	83%	68%	88%	154%	50%	794%	Active	188%	1275%	1003%	Active	667%	92%	15%	62%	15%	Activity [10]: Active; Activity [11]: Active; Activity [13]: Active; Activity [15]: Active; ED50 [19]: 4.3 mg/kg; Activity [22]: Active; Activity [24]: 13%; Activity [27]: 911%; Activity [28]: Active; Activity [30]: 493%
COC(=O)[C@H]1C2CCC(C[C@@H]1c1ccc(C)cc1)N2C (some centres not stated)	24%	71%	0.207 µM	7.11 mg/kg	39%	20%	43%	-23%	-76%	42%	–	10%	6%	-11%	Active	55%	-1%	-42%	-68%	39%	Activity [31]: Active; Activity [32]: 100%; Activity [13]: Active; Activity [24]: 13%; IC50 [33]: 2.23 µM; Ki [33]: 1.12 µM; Activity [34]: Active; Activity [35]: 71%; Activity [27]: 17%; Activity [28]: Active; Activity [36]: Active; Activity [30]: 7%
COC(=O)[C@H]1C2CCC(C[C@@H]1c1ccc(Br)cc1)N2C (some centres not stated)	49%	86%	0.0157 µM	7.29 mg/kg	56%	19%	17%	-33%	26%	373%	Active	123%	267%	268%	Active	74%	100%	9%	-5%	29%	Activity [11]: Active; Activity [37]: Active; IC50 [38]: 0.57 µM; Ki [38]: 0.14 µM; ED50 [19]: 10 mg/kg; Activity [22]: Active; Activity [39]: Active; Activity [24]: 25%; Activity [40]: Active; Activity [34]: Active; Activity [27]: 901%; Activity [28]: Active; Activity [30]: 640%; Activity [41]: Active
COC(=O)[C@H]1[C@@H](c2ccc(F)cc2)C[C@H]2CC[C@H]1N2C	330%	–	–	0.29 mg/kg	28%	633%	–	–	232%	–	Active	558%	594%	220%	Active	739%	199%	333%	-29%	140%	Activity [42]: -47%; Activity [43]: -66%; Activity [44]: 100%; Activity [45]: -33%; Activity [46]: 5%; Activity [47]: Active; Activity [48]: 57%; IC50 [38]: 0.692 µM; Ki [38]: 0.063 µM; Activity [49]: Active; ED50 [19]: 0.7 mg/kg; Activity [22]: Active; Activity [39]: Active; Ki [33]: 0.503 µM; Activity [50]: 0%; Activity [51]: 86%; Activity [52]: Active
